C=C[C@]1(C)C[C@@H](OC(=O)CSC(C)(C)CNC(=O)[C@H](N)C(C)C)[C@]2(C)[C@H](C)CC[C@]3(CCC(=O)[C@H]32)[C@@H](C)[C@@H]1O.Cl
solubility (mole fraction)
Details | 278.15 K | 283.15 K | 288.15 K | 293.15 K | 298.15 K | 303.15 K | 308.15 K | 313.15 K
in ethanol | 0.0309 | 0.038 | 0.0432 | 0.0506 | 0.0601 | 0.0713 | 0.0837 | 0.101
in water | 0.00162 | 0.00321 | 0.00545 | 0.00853 | 0.0135 | 0.0214 | 0.0344 | 0.0486

From BigSolDB 2.1
